Measured values from patent US20150291565A1, “INDOLE COMPOUNDS AND THEIR USE AS ANTIMICROBIALS” (Memorial Sloan-Kettering Cancer Center, priority 2012, published 2015).
Converted amounts (≈) assume the structure as drawn. “And” between values parts separate entries of the source, which are not always exact repeats. Equal values may be shown once. Read-outs that look alike come from different tables or passages of the source.

Assays:
E. faecium CT-26 = test: Broth dilution MIC, E. faecium CT-26; assay type: cell-based; settings: Enterococcus faecium
M. smegmatis Mc2155 = test: MIC against M. smegmatis Mc2155; assay type: cell-based; settings: Mycolicibacterium smegmatis
M. smegmatis (mc2155) = test: Disk diffusion assay, zone of inhibition, M. smegmatis; assay type: cell-based
[1] = test system: methicillin-resistant S. aureus (ATCC 33591); test: Thigh infection model in neutropenic CD1 mice, MRSA; settings: 24 hours; for Log reduction: vs vehicle
E. coli ECM 1694 = test: Broth dilution MIC, E. coli ECM 1694; assay type: cell-based; settings: Escherichia coli
[2] = test system: M. smegmatis (mc2155) Beta-Galactosidase (B-gal) reporter gene; test: HTS screen with Beta-Galactosidase reporter gene in M. smegmatis; assay type: cell-based; settings: Mycolicibacterium smegmatis
Mycobacterium smegmatis = test: Time kill curve, liquid culture, M. smegmatis; assay type: cell-based; settings: 1.9 micromolar; vs DMSO control; FIG. 1 right-hand graph
MRSA = test: Disk diffusion assay, zone of inhibition, MRSA; assay type: cell-based, Staphylococcus aureus
[3] = test system: S. pneumoniae ATCC 6301 (PSSP); test: Broth dilution MIC, S. pneumoniae ATCC 6301; assay type: cell-based; settings: Streptococcus pneumoniae
P. aeruginosa ATCC 9027 = test: Broth dilution MIC, P. aeruginosa ATCC 9027; assay type: cell-based; settings: Pseudomonas aeruginosa
[4] = test system: S. aureus (MRSA) (ATCC33591); test: Septicemia survival model in neutropenic CD1 mice, MRSA; assay type: in vivo
E. coli ATCC 25922 = test: Broth dilution MIC, E. coli ATCC 25922; assay type: cell-based; settings: Escherichia coli
[5] = test system: S. pneumoniae ATCC 700674 (PRSP); test: Broth dilution MIC, S. pneumoniae ATCC 700674; assay type: cell-based; settings: Streptococcus pneumoniae
K. pneumoniae ATCC 51503 = test: Broth dilution MIC, K. pneumoniae ATCC 51503; assay type: cell-based; settings: Klebsiella pneumoniae
K. pneumoniae ATCC 13883 = test: Broth dilution MIC, K. pneumoniae ATCC 13883; assay type: cell-based; settings: Klebsiella pneumoniae
E. coli (ATCC 25922) = test: Septicemia survival model in neutropenic CD1 mice, E. coli; assay type: in vivo
S. aureus BAA-39 (MDR) = test: Broth dilution MIC, S. aureus BAA-39; assay type: cell-based; settings: for MIC: Staphylococcus aureus, BAA39
[6] = test system: S. aureus ATCC 33591 (MRSA); test: Broth dilution MIC, S. aureus ATCC 33591; assay type: cell-based; settings: for MIC: Staphylococcus aureus
[7] = disk diffusion zone of inhibition

## c1cc(C2=NCCN2)ccc1Nc1ccc(-c2cc3ccc(C4=NCCN4)cc3[nH]2)cc1 [SKI-1]
E. faecium CT-26; CT26, Table 1, range 64 down to 0.12 μg/ml, read-out: MIC E. faecium CT-26
  MIC: ≤ 0.12 µg/mL
E. faecium CT-26; CT26, Table 2, broth dilution MIC in ug/ml, read-out: MIC E faecium CT-25
  MIC: 0.06 µg/mL (≈ 0.143 µM)
E. faecium CT-26; CT26, Table 3, starting at 4 μg/ml, read-out: MIC E. faecium CT-26
  MIC: 0.06 µg/mL (≈ 0.143 µM)
E. faecium CT-26; CT26, Table 4, broth dilution MIC according to CLSI standards (NAEJA), read-out: MIC E. faecium CT-26
  MIC: 0.015 µg/mL (≈ 0.0357 µM)
M. smegmatis Mc2155
  MIC: 0.2 µM (≈ 0.0841 µg/mL)
M. smegmatis (mc2155); [7]
  Zone Size M. smegmatis: 19.6 mm
M. smegmatis (mc2155); n = 3
  Average Zone Size MC2155 (n = 3): 12.3
[1]; 10 mg/kg BID IP
  Mean bacterial tissue burden (log10/thigh): 8.3106 log10/thigh
[1]; 10 mg/kg BID IP, listed as 356313, 10 mg/kg
  Log reduction: 0.14 Log and 0.1382 Log
[1]; 20 mg/kg BID IP
  Mean bacterial tissue burden (log10/thigh): 7.7428 log10/thigh
[1]; 20 mg/kg BID IP, listed as 356313, 20 mg/kg
  Log reduction: 0.71 Log and 0.7060 Log
E. coli ECM 1694; ECM1694, Table 1, range 64 down to 0.12 μg/ml, read-out: MIC E. coli ECM 1694
  MIC: 0.25 µg/mL (≈ 0.595 µM)
E. coli ECM 1694; ECM1694, Table 2, broth dilution MIC in ug/ml, read-out: MIC E. coli ECM 1693
  MIC: 0.25 µg/mL (≈ 0.595 µM)
E. coli ECM 1694; ECM1694, Table 3, starting at 4 μg/ml, read-out: MIC E. coli ECM 1694
  MIC: 0.5 µg/mL (≈ 1.19 µM)
E. coli ECM 1694; ECM1694, Table 4, broth dilution MIC according to CLSI standards (NAEJA), read-out: MIC E. coli ECM 1694
  MIC: 0.25 µg/mL (≈ 0.595 µM)
[2]; suffix 250 not explained, read-out: IC50_250
  IC50: 790 nM
[2]; suffix 251 not explained, read-out: IC50_251
  IC50: 730 nM
[2]; suffix 381 not explained, read-out: IC50_381
  IC50: 2540 nM
[2]; suffix 569 not explained, read-out: IC50_569
  IC50: 3670 nM
Mycobacterium smegmatis
  Viable bacterial titer over time (time kill curve): bactericidal
MRSA
  Average Zone Size MRSA: 11
MRSA; [7]
  Zone Size MRSA: 11 mm
[3]; ATCC6301, Table 1, range 64 down to 0.12 μg/ml, read-out: MIC S. pneumoniae ATCC 6301
  MIC: ≤ 0.12 µg/mL
[3]; ATCC6301, Table 2, broth dilution MIC in ug/ml, read-out: MIC S pneumonia ATCC 6301 PSSP
  MIC: 0.12 µg/mL (≈ 0.285 µM)
[3]; ATCC6301, Table 3, starting at 4 μg/ml, read-out: MIC S. pneumoniae ATCC 6301
  MIC: 0.12 µg/mL (≈ 0.285 µM)
[3]; ATCC6301, Table 4, broth dilution MIC according to CLSI standards (NAEJA), read-out: MIC PSSP S. pneumoniae ATCC 6301
  MIC: 0.12 µg/mL (≈ 0.285 µM)
P. aeruginosa ATCC 9027; ATCC 9026 / ATCC 9027, Table 2, broth dilution MIC in ug/ml, read-out: MIC P aeruginosa ATCC 9026
  MIC: 1 µg/mL (≈ 2.38 µM)
P. aeruginosa ATCC 9027; ATCC9027, Table 1, range 64 down to 0.12 μg/ml, read-out: MIC P. aeruginosa ATCC 9027
  MIC: 1 µg/mL (≈ 2.38 µM)
P. aeruginosa ATCC 9027; ATCC9027, Table 4, broth dilution MIC according to CLSI standards (NAEJA), read-out: MIC P. aeruginosa ATCC 9027
  MIC: 0.5 µg/mL (≈ 1.19 µM)
[4]; 10 mg/kg
  Day by which all the mice died: ≤ 3 days
[4]; 10 mg/kg BID IP
  Percent Survival Day 1: 100%
  Percent Survival Day 2: 100%
  Percent Survival Day 3: 0%
  Percent Survival Day 4: 0%
  Percent Survival Day 5: 0%
  Percent Survival Day 6: 0%
  Percent Survival Day 7: 0%
[4]; 20 mg/kg
  Day by which all the mice died: ≤ 4 days
[4]; 20 mg/kg BID IP
  Percent Survival Day 1: 100%
  Percent Survival Day 2: 100%
  Percent Survival Day 3: 80%
  Percent Survival Day 4: 0%
  Percent Survival Day 5: 0%
  Percent Survival Day 6: 0%
  Percent Survival Day 7: 0%
E. coli ATCC 25922; ATCC 25921 / ATCC 25922, Table 2, broth dilution MIC in ug/ml, read-out: MIC E. coli ATCC 25921
  MIC: 1 µg/mL (≈ 2.38 µM)
E. coli ATCC 25922; ATCC25922, Table 1, range 64 down to 0.12 μg/ml, read-out: MIC E. coli ATCC 25922
  MIC: 1 µg/mL (≈ 2.38 µM)
E. coli ATCC 25922; ATCC25922, Table 4, broth dilution MIC according to CLSI standards (NAEJA), read-out: MIC E. coli ATCC 25922
  MIC: 0.5 µg/mL (≈ 1.19 µM)
[5]; Table 1, range 64 down to 0.12 μg/ml, read-out: MIC S. pneumoniae ATCC 700674
  MIC: ≤ 0.12 µg/mL
[5]; Table 2, broth dilution MIC in ug/ml, read-out: MIC S pneumonia ATCC 700674 PRSP
  MIC: 0.12 µg/mL (≈ 0.285 µM)
[5]; Table 3, starting at 4 μg/ml, read-out: MIC S. pneumoniae ATCC 700674
  MIC: 0.12 µg/mL (≈ 0.285 µM)
[5]; Table 4, broth dilution MIC according to CLSI standards (NAEJA), read-out: MIC PRSP S. pneumoniae ATCC 700674
  MIC: 0.03 µg/mL (≈ 0.0713 µM)
K. pneumoniae ATCC 51503; ATCC51503, Table 1, range 64 down to 0.12 μg/ml, read-out: MIC K. pneumoniae ATCC 51503
  MIC: 2 µg/mL (≈ 4.76 µM)
K. pneumoniae ATCC 51503; ATCC51503, Table 2, broth dilution MIC in ug/ml, read-out: MIC K pneumonia ATCC 51503
  MIC: 2 µg/mL (≈ 4.76 µM)
K. pneumoniae ATCC 51503; ATCC51503, Table 4, broth dilution MIC according to CLSI standards (NAEJA), read-out: MIC K. pneumoniae ATCC 51503
  MIC: 1 µg/mL (≈ 2.38 µM)
K. pneumoniae ATCC 13883; ATCC13883, Table 1, range 64 down to 0.12 μg/ml, read-out: MIC K. pneumoniae ATCC 13883
  MIC: 1 µg/mL (≈ 2.38 µM)
K. pneumoniae ATCC 13883; ATCC13883, Table 2, broth dilution MIC in ug/ml, read-out: MIC K pneumonia ATCC 13883
  MIC: 1 µg/mL (≈ 2.38 µM)
K. pneumoniae ATCC 13883; ATCC13883, Table 4, broth dilution MIC according to CLSI standards (NAEJA), read-out: MIC K. pneumoniae ATCC 13883
  MIC: 0.5 µg/mL (≈ 1.19 µM)
E. coli (ATCC 25922); 10 mg/kg
  Day by which all the mice died: ≤ 3 days
E. coli (ATCC 25922); 10 mg/kg BID IP
  Percent Survival Day 1: 100%
  Percent Survival Day 2: 60%
  Percent Survival Day 3: 0%
  Percent Survival Day 4: 0%
  Percent Survival Day 5: 0%
  Percent Survival Day 6: 0%
  Percent Survival Day 7: 0%
E. coli (ATCC 25922); 20 mg/kg
  Day by which all the mice died: ≤ 4 days
E. coli (ATCC 25922); 20 mg/kg BID IP
  Percent Survival Day 1: 100%
  Percent Survival Day 2: 80%
  Percent Survival Day 3: 60%
  Percent Survival Day 4: 0%
  Percent Survival Day 5: 0%
  Percent Survival Day 6: 0%
  Percent Survival Day 7: 0%
S. aureus BAA-39 (MDR); Table 1, range 64 down to 0.12 μg/ml, read-out: MIC S. aureus BAA-39
  MIC: 0.25 µg/mL (≈ 0.595 µM)
S. aureus BAA-39 (MDR); Table 2, broth dilution MIC in ug/ml, read-out: MIC S aureus BAA-39 MDR
  MIC: 0.25 µg/mL (≈ 0.595 µM)
S. aureus BAA-39 (MDR); Table 4, broth dilution MIC according to CLSI standards (NAEJA), read-out: MIC MDR S. aureus BAA-39
  MIC: 0.25 µg/mL (≈ 0.595 µM)
S. aureus BAA-39 (MDR); Table 3, starting at 4 μg/ml
  MIC S. aureus BAA-39: 0.25 µg/mL (≈ 0.595 µM)
[6]; Table 1, range 64 down to 0.12 μg/ml, read-out: MIC S. aureus ATCC 33591
  MIC: 0.25 µg/mL (≈ 0.595 µM)
[6]; Table 2, broth dilution MIC in ug/ml, read-out: MIC S aureus ATCC 33591 MRSA
  MIC: 0.25 µg/mL (≈ 0.595 µM)
[6]; Table 4, broth dilution MIC according to CLSI standards (NAEJA), read-out: MIC MRSA S. aureus ATCC 33591
  MIC: 0.12 µg/mL (≈ 0.285 µM)
[6]; Table 3, starting at 4 μg/ml
  MIC S. aureus ATCC 33591: 0.25 µg/mL (≈ 0.595 µM)
